Results on four compounds are retold here after ChEMBL document CHEMBL5620345, “Metal binding pharmacophore click-derived discovery of new broad-spectrum metallo-β-lactamase inhibitors” (Eur J Med Chem, 2023).

Assay [1] in a line: Inhibition of recombinant his tagged IMP1 (unknown origin) expressed in Escherichia coli (DE3) cells using FC5 as substrate by microplate reader assay.
Assay [2] is described as follows: Inhibition of recombinant NDM1 (unknown origin) expressed in Escherichia coli (DE3) cells using FC5 as substrate by microplate reader assay.
The nature of assay [3]: Inhibition of recombinant VIM-1 (unknown origin) expressed in Escherichia coli (DE3) cells using FC5 as substrate by microplate reader assay.
A short description of assay [4]: Inhibition of recombinant his tagged VIM-2 (unknown origin) expressed in Escherichia coli (DE3) cells using FC5 as substrate by microplate reader assay.
Assay [5] in a line: Inhibition of recombinant VIM-5 (unknown origin) expressed in Escherichia coli (DE3) cells using FC5 as substrate by microplate reader assay.
Assay [6] relates to Escherichia coli. As to the kind of experiment: Antibacterial activity against Escherichia coli BAA2452 expressing blaNDM-1 clinical isolates assessed as meropenem MIC incubated for 16 to 18 hrs by broth microdilution method. Also: test concentration or dose not given here. The conditions noted are these: time 16-18 hrs. The assay is classed as functional.
Assay [7] has as its system Enterobacterales. As to the kind of experiment: Antibacterial activity against Carbapenem-Resistant Enterobacterales 19 expressing blaNDM-1 clinical isolates assessed as meropenem MIC incubated for 16 to 18 hrs by broth microdilution method. Also: test concentration or dose not given here. In kind it is functional. The conditions noted are these: time 16-18 hrs.
For assay [8], the system named is Klebsiella pneumoniae. Description: Antibacterial activity against Klebsiella pneumoniae BAA2470 expressing blaNDM-1 clinical isolates assessed as meropenem MIC incubated for 16 to 18 hrs by broth microdilution method. Also: test concentration or dose not given here. The assay is classed as functional. The conditions noted are these: time 16-18 hrs.
Assay [9] has as its system Escherichia coli. As to the kind of experiment: Antibacterial activity against Escherichia coli C1580 expressing blaIMP-1 clinical isolates assessed as meropenem MIC incubated for 16 to 18 hrs by broth microdilution method. Also: test concentration or dose not given here. In kind it is functional. The conditions noted are these: time 16-18 hrs.
Assay [10] has as its system Escherichia coli. As to the kind of experiment: Antibacterial activity against Escherichia coli C1541 expressing blaVIM-2 clinical isolates assessed as meropenem MIC incubated for 16 to 18 hrs by broth microdilution method. Also: test concentration or dose not given here. The assay is classed as functional. The conditions noted are these: time 16-18 hrs.
Assay [11] concerns Escherichia coli. Description: Antibacterial activity against Escherichia coli BAA2452 expressing blaNDM-1 clinical isolates assessed as fold potentiation incubated for 16 to 18 hrs by broth microdilution method. Also: test concentration or dose not given here. In kind it is functional. The conditions noted are these: time 16-18 hrs.
For assay [12], the system named is Enterobacterales. As to the kind of experiment: Antibacterial activity against Carbapenem-Resistant Enterobacterales 19 expressing blaNDM-1 clinical isolates assessed as fold potentiation incubated for 16 to 18 hrs by broth microdilution method. Also: test concentration or dose not given here. The assay is classed as functional. The conditions noted are these: time 16-18 hrs.
Assay [13] relates to Klebsiella pneumoniae. As to the kind of experiment: Antibacterial activity against Klebsiella pneumoniae BAA2470 expressing blaNDM-1 clinical isolates assessed as fold potentiation incubated for 16 to 18 hrs by broth microdilution method. Also: test concentration or dose not given here. The assay is classed as functional. The conditions noted are these: time 16-18 hrs.
In assay [14] the test system is Escherichia coli. As to the kind of experiment: Antibacterial activity against Escherichia coli C1580 expressing blaIMP-1 clinical isolates assessed as fold potentiation incubated for 16 to 18 hrs by broth microdilution method. Also: test concentration or dose not given here. The conditions noted are these: time 16-18 hrs. In kind it is functional.
The subject of assay [15] is Escherichia coli. Description: Antibacterial activity against Escherichia coli C1541 expressing blaVIM-2 clinical isolates assessed as fold potentiation incubated for 16 to 18 hrs by broth microdilution method. Also: test concentration or dose not given here. The conditions noted are these: time 16-18 hrs. In kind it is functional.

Take `CC(C)(C)c1ccc(C(c2cccc(-n3cc(-c4cccc(N)c4)nn3)c2)P(=O)(O)O)cc1` (stereo not given): the IC50 in assay [1] amounted to 1.37 µM; in assay [2] it was 0.18 µM; in assay [3] it was 0.71 µM; in [4] it was 0.009 µM; in assay [5], 0.001 µM. Moreover, the MIC turned out to be 16 mg/L in the assay on Escherichia coli [6]; 8 mg/L with Enterobacterales [7]; 64 mg/L with Klebsiella pneumoniae [8]; 2 mg/L in the assay on Escherichia coli [9]; 2 mg/L in the assay on Escherichia coli [10]. The “fold change (FC)” value in the assay on Escherichia coli [11] is recorded as 8; with Enterobacterales [12] it was 8; with Klebsiella pneumoniae [13], greater than 2; in the assay on Escherichia coli [14] it was 16; in the assay with Escherichia coli [15], 8.

`Nc1cccc(-c2cn(-c3cccc(C(c4ccc(-c5ccccc5)cc4)P(=O)(O)O)c3)nn2)c1` (stereo not given): the IC50 in assay [1] was 0.15 µM; in assay [2], 0.18 µM; in assay [3], 0.35 µM; in assay [4], 0.00043 µM; in [5], 0.002 µM. Also, the MIC worked out at 16 mg/L in the assay with Escherichia coli [6]; 8 mg/L in the assay with Enterobacterales [7]; 64 mg/L in the assay on Klebsiella pneumoniae [8]; 2 mg/L in the assay with Escherichia coli [9]; 2 mg/L in the assay with Escherichia coli [10]. Moreover, the “fold change (FC)” value in the assay with Escherichia coli [11] is recorded as 8; with Enterobacterales [12], 8; with Klebsiella pneumoniae [13], greater than 2; in the assay on Escherichia coli [14] it was 16; with Escherichia coli [15], 8.

Consider `Nc1cccc(-c2cn(-c3cccc(C(c4ccc(-c5ccc(Br)cc5)cc4)P(=O)(O)O)c3)nn2)c1` (stereo not given), for which the IC50 in assay [1] is 12 µM; in assay [2] it was 4.9 µM; in assay [3], 1.71 µM; in assay [4] it was 0.008 µM; in assay [5] it was 0.002 µM. The MIC was 8 mg/L in the assay on Escherichia coli [6]; 8 mg/L in the assay on Enterobacterales [7]; 64 mg/L in the assay on Klebsiella pneumoniae [8]; 1 mg/L with Escherichia coli [9]; 2 mg/L with Escherichia coli [10]. In addition, the “fold change (FC)” value is recorded as 16 in the assay with Escherichia coli [11]; 8 in the assay on Enterobacterales [12]; greater than 2 in the assay with Klebsiella pneumoniae [13]; 32 with Escherichia coli [14]; 8 in the assay on Escherichia coli [15].

On to `Nc1cccc(-c2cn(-c3cccc(C(c4cccc5ccccc45)P(=O)(O)O)c3)nn2)c1` (stereo not given), for which the IC50 in assay [1] turned out to be 0.037 µM; in [2], 0.92 µM; in assay [3], 0.13 µM; in assay [4], 0.006 µM; in assay [5], 0.00029 µM. Also, the MIC came out at 16 mg/L with Escherichia coli [6]; 4 mg/L with Enterobacterales [7]; 64 mg/L in the assay with Klebsiella pneumoniae [8]; 0.5 mg/L with Escherichia coli [9]; 1 mg/L with Escherichia coli [10]. The “fold change (FC)” value is 8 with Escherichia coli [11]; 16 in the assay on Enterobacterales [12]; greater than 2 in the assay on Klebsiella pneumoniae [13]; 64 with Escherichia coli [14]; 16 with Escherichia coli [15].
